Assay results taken from paper PMC10590383, “Repurposing conformational changes in ANL superfamily enzymes to rapidly generate biosensors for organic and amino acids” (Nature Communications, 2023).

Legend:
[1] = Substrate (ligand) specificity of […]s; format: biochemical; settings: for fluorescence response of GECFINDER to each substrate, AVE of 3 repeats: Supplementary Fig. 3 c, substrate specificity
Summary of the method: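 Purified biosensor protein (0.75 μM) with ligand, 1 mM ATP and 2.5 mM MgCl2 in 100 mM Tris-HCl, pH 7.5, at room temperature. Fluorescence (Ex 460 or 480/Em 510 nm) read each minute for 15 min. Dose-response fitted by 5-parameter logistic; specificity tested with 20 amino acids at 100 μM as normalized ΔF/F0.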

[2] = Fluorescence spectra / excitation wavelength scan of […]s; format: physicochemical; settings: Wavelength 300 nm
Experimental: Fig. 3 Dose–response curves and fluorescence spectrums of […]s. a, c, e, g, i, k Dose–response curve of purified […]s with increasing concentrations of ligand in 100 mM Tris-HCl buffer (pH=7.5). […] All data shown are mean ± S.D. (n = 3 biologically independent samples). Source data are provided as a Source data file.
The study conducted dose–response curve, substrate specificity, and fluorescent spectrum analyses in 100-mM Tris buffer (pH = 7.5), while pH stability experiments were performed in 100-mM Tris buffer at three different pH values (6.5, 7.5, and 8.5) at room temperature. […] protein at a concentration of 0.75 μM, various small molecule concentrations, 1 mM ATP, and 2.5 mM MgCl2 were used in the experiments. Fluorescent signals were detected using a Microplate Reader (Synergy H4, Bio Tek) at an excitation/emission wavelength of 460 nm/510 nm or 480 nm/510 nm. The dose-response curve was determined immediately after the addition of the analyte. The total duration of the measurement was 15 min, with readings taken at one-minute intervals. The dose-response curve was plotted using the fluorescence values obtained after achieving stability in the fluorescence signal. The dose-response curves were fitted using the logistic model LOGISTIC5 available in Origin 2021, which could provide a more adequate fit to asymmetric dose-response data[62],[63]. Excitation spectra were scanned from 300 to 540 nm with a step size of 5 nm, and the emission wavelength was set to 560 nm. Emission spectra were scanned from 470 to 700 nm with a step size of 5 nm, and the excitation wavelength was set to 450 nm. The thermal stability of […] was analyzed using the UNcle multifunctional protein stability analysis system. Measurements were performed in 20 mM MOPS buffer with 2 mM DTT at a sample concentration of 1 mg/mL. Absolute fluorescence quantum yields were measured using an absolute photoluminescence quantum yield spectrometer (FS5, Edinburgh).

| Wavelength scan, AVE of Repeat 1-3 (Fig. 3 l) ([2]; 0.005 μM His) | Wavelength scan, AVE of Repeat 1-3 (Fig. 3 l) ([2]; 10 μM His) | Wavelength scan, AVE of Repeat 1-3 (Fig. 3 l) ([2]; 1000 μM His) | Structure (SMILES) | fluorescence response of GECFINDER to each substrate, AVE of 3 repeats [1] | Wavelength scan, AVE of Repeat 1-3 (Fig. 3 j) ([2]; 0.05 μM Ile) | Wavelength scan, AVE of Repeat 1-3 (Fig. 3 j) ([2]; 100 μM Ile) | Wavelength scan, AVE of Repeat 1-3 (Fig. 3 j) ([2]; 10000 μM Ile) | AVE of Repeat 1-3, sensor signal with ligand (Supplementary Fig. 7 c) ([1]; 0.5 mM ligand, Control AVE 12117.3) | Wavelength scan, AVE of Repeat 1-3 (Fig. 3 d) ([2]; 0.001 μM Phe) | Wavelength scan, AVE of Repeat 1-3 (Fig. 3 d) ([2]; 1 μM Phe) |
| --- | --- | --- | --- | --- | --- | --- | --- | --- | --- | --- |
| 201.667 | 165.667 | 210 | N[C@@H](Cc1cnc[nH]1)C(=O)O [His] | 0.0452 |  |  |  |  |  |  |
|  |  |  | CC[C@H](C)[C@H](N)C(=O)O [Ile] | 0.009799 | 3399.67 | 3371.67 | 3289.33 |  |  |  |
|  |  |  | N[C@@H](Cc1ccccc1)C(=O)O [Phe] | 0.3443 |  |  |  | 23386.3 | 174.667 | 212 |
